# Target: T1, panel of 442 kinases (Homo sapiens, UniProt O76039)
# T1 construct: purchased KINOMEscan
# T1 sequence (O76039 1-960): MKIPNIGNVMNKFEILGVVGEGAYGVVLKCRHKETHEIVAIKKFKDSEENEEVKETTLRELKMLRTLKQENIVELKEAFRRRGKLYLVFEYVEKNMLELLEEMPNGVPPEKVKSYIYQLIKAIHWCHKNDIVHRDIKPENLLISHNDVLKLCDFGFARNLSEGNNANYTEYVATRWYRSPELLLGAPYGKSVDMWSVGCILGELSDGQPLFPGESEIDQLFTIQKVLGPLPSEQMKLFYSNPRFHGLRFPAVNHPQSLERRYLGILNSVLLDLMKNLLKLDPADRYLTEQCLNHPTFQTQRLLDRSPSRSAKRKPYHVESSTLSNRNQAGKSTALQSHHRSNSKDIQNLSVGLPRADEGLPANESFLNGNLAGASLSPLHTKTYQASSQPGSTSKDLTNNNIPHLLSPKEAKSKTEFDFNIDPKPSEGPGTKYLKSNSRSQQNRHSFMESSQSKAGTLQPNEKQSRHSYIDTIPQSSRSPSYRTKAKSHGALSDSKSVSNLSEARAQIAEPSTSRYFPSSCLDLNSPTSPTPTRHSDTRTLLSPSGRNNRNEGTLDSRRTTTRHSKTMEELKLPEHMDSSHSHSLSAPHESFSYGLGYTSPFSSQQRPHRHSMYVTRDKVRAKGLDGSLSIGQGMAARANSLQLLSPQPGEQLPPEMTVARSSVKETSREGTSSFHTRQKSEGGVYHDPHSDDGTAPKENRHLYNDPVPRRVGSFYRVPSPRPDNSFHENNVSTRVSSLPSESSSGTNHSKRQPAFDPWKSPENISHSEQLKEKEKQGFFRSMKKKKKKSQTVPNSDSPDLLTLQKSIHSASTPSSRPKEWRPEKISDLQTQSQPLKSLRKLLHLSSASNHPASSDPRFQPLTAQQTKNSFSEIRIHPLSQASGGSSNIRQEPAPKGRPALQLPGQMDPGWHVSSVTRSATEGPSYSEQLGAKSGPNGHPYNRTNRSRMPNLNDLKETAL
# Type: binding
# Conditions: Compound Concentration 10 µM
# Excerpt: We assessed the selectivity of members of this scaffold using the KINOMEscan methodology across a near comprehensive panel of 442 kinases [[18,27]].
row,SMILES,KINOMEscan: CDKL5
1,COc1cc(C(=O)N2CCC(N3CCN(C)CC3)CC2)ccc1Nc1ncc2c(n1)N(C)c1ccccc1C(=O)N2C [15 (LRRK2-IN-1)],100
2,"COc1cc(C(=O)N2CCC(N3CCN(C)CC3)CC2)ccc1Nc1ncc2c(n1)N(C1CCCC1)c1ccccc1C(=O)N2C [Compound 25, 11-cyclopentyl-2-((2-methoxy-4-(4-(4-methylpiperazin-1-yl)piperidine-1-carbonyl)phenyl)amino)-5-methyl-5H-benzo[e]pyrimido[5,4-b][1,4]diazepin-6(11H)-one]",93
3,CCOc1cc(C(=O)N2CCC(N3CCN(C)CC3)CC2)ccc1Nc1ncc2c(n1)N(C1CCCC1)c1ccccc1C(=O)N2C [Compound 26],100
